Patent US20080181971A1, “Combination Cancer Treatments Comprising Elsamitrucin and Other Agents” (priority 2007, published 2008)
Read-outs that look alike come from different tables or passages of the source.

Key:
Format in all cases: cell-based
[1] = test system: HT29 human colon carcinoma cell line; assay: MTT growth inhibition assay, single agents and fixed-ratio combinations with elsamitrucin (Chou-Talalay, CalcuSyn), HT29
Protocol: (§1) These individual agents and their combinations were evaluated for in vitro activity against the HT29 colon carcinoma, SKMES non-small cell lung carcinoma, and Daudi B-lymphoblastic cell lines. Cell growth in 96-well microculture plates was determined with a semi-automated MTT assay. Efficacies of drug combinations were analyzed according to the methods of Chou and Talalay, utilizing CalcuSyn software. Twenty-one in vitro experiments were conducted to determine the individual and combined growth inhibitory activities of elsamitrucin and the ten selected agents in the three cell lines.
(§2) b. Cell Lines. The human HT29 colon carcinoma, SKMES non-small cell lung carcinoma, and Daudi B-lymphoblastic cell lines were originally obtained from ATCC (American Type Culture Collection). These cell lines have been maintained and stored as frozen stocks. […] The medium for Daudi cells was additionally supplemented with 1 mM sodium pyruvate.
(§3) c. Growth Inhibition Assay. Anti-proliferative activities against the HT29, SKMES, and Daudi cell lines were evaluated in vitro by the MTT assay. Cells (1,500-2,000 cells/well) were seeded in a 96-well microculture plate in 180 pL of medium/well. […] DMSO was present in all wells at a final concentration of 0.1%. […] When the appropriate cell density was attained in the control wells, the plates were centrifuged briefly, and 100 pL of the growth medium was removed. The cell cultures were incubated with 50 μL of MTT reagent (1 mg/mL in Dulbecco's phosphate-buffered saline) for 4 hr at 37° C. The resultant purple formazan precipitate was solubilized with 200 μL of 0.04 N HCl in isopropanol.
(§4) The results of each experiment were stored in Excel format.
(§5) d. Preliminary Experiments: Design and Data Analysis. […] The initial experiments utilized serial three-fold dilutions of the drugs to produce ten test concentrations over a broad concentration range. Based on the initial results, a narrower concentration range was selected, and serial 1:1.5 dilutions were utilized to produce ten test concentrations. Experiments were repeated as needed.
(§6) For assays that utilized lower dilution factors to produce narrower concentration ranges, the results were analyzed with both Prism and CalcuSyn (as described below) to allow comparison of the IC50 and Da, values. The results guided the selection of appropriate concentration ranges and concentration ratios for the combination experiments.
(§7) e. Combination Experiments: Design and Data Analysis. The fixed-ratio design of Chou was used for the combination experiments. For each experiment, the drug solutions were mixed at a ratio that was expected to provide approximately equipotent concentrations, and the mixture was serially diluted with medium containing 1% DMSO to yield 10× stock solutions of the test concentrations. […] Each agent was tested individually and in combination at seven concentrations. The concentration range selected for each assay was designed to bracket the concentrations that produced half-maximal effects (ED50) with each single agent and their mixture. The concentrations used for the single-drug assays were twice as high as their concentrations in the mixture. Each assay was performed in quadruplicate. For each drug combination, the individual agents and their mixture were assayed on the same 96-well plate. The effects of the individual drugs and their combinations were analyzed by the method of Chou and Talalay. The results of each experiment were entered into CalcuSyn (BIOSOFT) for dose-effect analysis.
(§8) where Acontrol and Adrug are the respective absorbances of vehicle control and drug-treated wells in the MIT assay.
(§9) where the slope, m, is related to the sigmoidicity of the dose-effect curve, with m=1, >1, and <1 indicating hyperbolic, sigmoidal, and reverse sigmoidal shapes, respectively.

[2] = test system: SKMES human non-small cell lung carcinoma cell line; assay: MTT growth inhibition assay, single agents and fixed-ratio combinations with elsamitrucin (Chou-Talalay, CalcuSyn), SKMES; conditions: for IC50: Homo sapiens
Protocol: as §1, §2, §3, §4, §5, §6, §7, §8, §9

[3] = test system: Daudi human lymphoma cell line; assay: MTT growth inhibition assay, single agents and fixed-ratio combinations with elsamitrucin (Chou-Talalay, CalcuSyn), Daudi; conditions: Homo sapiens, Daudi
Protocol: as §1, §2, §3, §4, §5, §6, §7, §8, §9

[4] = HT29, single agent on the same plate as the combination, read-out: Dm Value, Individually, Second Agent
[5] = Homo sapiens, HT-29, SPA-01 (HT29-e21), single agent, dilution 1:3, read-out: Prism IC50
[6] = Homo sapiens, HT-29, SPA-04 (HT29-e22), single agent, dilution 1:1.5, read-out: CalcuSyn Dm
[7] = Homo sapiens, HT-29, SPA-04 (HT29-e22), single agent, dilution 1:1.5, read-out: Prism IC50
[8] = Homo sapiens, HT-29, SPA-10 (HT29-e24), single agent, dilution 1:1.5, read-out: CalcuSyn Dm
[9] = Homo sapiens, HT-29, SPA-10 (HT29-e24), single agent, dilution 1:1.5, read-out: Prism IC50
[10] = Homo sapiens, HT-29, average of preliminary single-agent experiments, HT29, read-out: Average IC50, Dm value
[11] = SKMES growth inhibition, second agent alone, one value per plate (Experiment ID), read-out: Dm Value (95% Confidence Interval), Individually, Second Agent
[12] = SKMES, single agent on the same plate as the combination, read-out: Dm Value, Individually, Second Agent
[13] = SPA-02 (SKMES-e22), single agent, dilution 1:3, read-out: Prism IC50
[14] = SPA-03 (SKMES-e23), single agent, dilution 1:1.5, read-out: CalcuSyn Dm
[15] = SPA-03 (SKMES-e23), single agent, dilution 1:1.5, read-out: Prism IC50
[16] = SPA-09 (SKMES-e25), single agent, dilution 1:1.5, read-out: CalcuSyn Dm
[17] = SPA-09 (SKMES-e25), single agent, dilution 1:1.5, read-out: Prism IC50
[18] = average of preliminary single-agent experiments, SKMES, read-out: Average IC50, Dm value
[19] = Daudi growth inhibition, second agent alone, one value per plate, Table 8 (Supplement), read-out: Dm Value (95% Confidence Interval), Individually, Second Agent
[20] = Daudi growth inhibition, second agent alone, Table 8, read-out: Dm Value (95% Confidence Interval), Individually, Second Agent
[21] = SPA-05 (Daudi-e01), single agent, dilution 1:3, read-out: Prism IC50
[22] = SPA-08 (Daudi-e02), single agent, dilution 1:1.5, read-out: CalcuSyn Dm
[23] = SPA-08 (Daudi-e02), single agent, dilution 1:1.5, read-out: Prism IC50
[24] = SPA-15 (Daudi-e03), single agent, dilution 1:1.5 (elsamitrucin 1:1.33), read-out: CalcuSyn Dm
[25] = SPA-15 (Daudi-e03), single agent, dilution 1:1.5 (elsamitrucin 1:1.33), read-out: Prism IC50
[26] = average of preliminary single-agent experiments, read-out: Average IC50, Dm value
[27] = read-out: approximate Dm values for the second drugs as single agents
[28] = Homo sapiens, HT-29, HT29, single agent on the same plate as the combination, read-out: Dm Value, Individually, Second Agent

IC50 [1, 5] | IC50 [1, 6] | IC50 [1, 7] | IC50 [1, 10] | IC50 [2, 11] | IC50 [2, 12] | IC50 [2, 13] | IC50 [2, 14] | IC50 [2, 15] | IC50 [2, 16] | IC50 [2, 17] | IC50 [2, 18] | IC50 [3, 19] | IC50 [3, 20] | IC50 [3, 21] | IC50 [3, 22] | IC50 [3, 23] | IC50 [3, 26] | IC50 [3, 27] | IC50 [1, 28] | Structure (SMILES) | other results
~3300 nM | 134 nM | 280 nM | 2040 nM | 4350 nM | 4350 nM | 438 nM | 5200 nM | ~3300 nM | 5580 nM | 3130 nM | 3590 nM | 11700 nM | 11700 nM | ~9200 nM | 11100 nM | 12700 nM | 12200 nM | ~11700 nM |  | O=c1[nH]cc(F)c(=O)[nH]1 [5-Fluorouracil, 5-fluorouracil] | change of Dm in the mixture versus single agent ([1]; HT29): increased only slightly; IC50 [1, 4]: 786 nM; IC50 [1, 8]: 4200 nM; IC50 [1, 9]: 1650 nM; IC50 [3, 24]: 13200 nM; IC50 [3, 25]: 11900 nM
12 nM | 29 nM | 23 nM | 21 nM | 24 nM | 16 nM |  | 21.5 nM | 19.5 nM |  |  | 21 nM | 3.9 nM | 3.9 nM | 3.7 nM | 3.4 nM | 4 nM | 4 nM | ~3.9 nM | 17.8 nM | CC(C)C[C@H](NC(=O)[C@H](Cc1ccccc1)NC(=O)c1cnccn1)B(O)O [Bortezomib, bortezomib] | 
40 nM | 57 nM | 29 nM | 42 nM | 83 nM | 56 nM | 7 nM | ~200 nM | ~50 nM | 21 nM | 23 nM | 17 nM | 9 nM | 9 nM | ~1 nM | ~33 nM | ~9.5 nM | 5 nM | ~9 nM |  | COc1cccc2c1C(=O)c1c(O)c3c(c(O)c1C2=O)C[C@@](O)(C(=O)CO)C[C@@H]3O[C@H]1C[C@H](N)[C@H](O)[C@H](C)O1 [Doxorubicin, doxorubicin] | IC50 [1, 4]: 48 nM; IC50 [3, 24]: 5 nM; IC50 [3, 25]: 5 nM
~900 nM | 766 nM | 698 nM | 732 nM | 237 nM | 237 nM | 199 nM | 317 nM | 287 nM |  |  | 268 nM | 47 nM | 47 nM | 20.2 nM | 23 nM | 31 nM | 25 nM | ~47 nM | 710 nM | COc1cc([C@@H]2c3cc4c(cc3[C@@H](O[C@@H]3O[C@@H]5CO[C@@H](C)O[C@H]5[C@H](O)[C@H]3O)[C@H]3COC(=O)[C@H]23)OCO4)cc(OC)c1O [Etoposide, etoposide] | 
4.6 nM |  | 10 nM | 5 nM | 1.8 nM | 2.8 nM | 1.5 nM | 1.8 nM | 2.5 nM |  |  | 2 nM | 1.2 nM | 1.2 nM | 0.6 nM | 1.3 nM | 1.4 nM | 1 nM | ~1.2 nM | 4 nM | Nc1ccn([C@@H]2O[C@H](CO)[C@@H](O)C2(F)F)c(=O)n1 [Gemcitabine, gemcitabine] | IC50 [1, 8]: 6 nM; IC50 [1, 9]: 4 nM
25.4 nM | 23 nM | 18 nM | 22 nM | 12 nM | 8.2 nM | ~0.6 nM |  |  | 9.5 nM | 8.5 nM | 10 nM | 45 nM | 45 nM | ~20 nM | 50 nM | 49 nM | 50 nM | ~45 nM | 22 nM | CN(Cc1cnc2nc(N)nc(N)c2n1)c1ccc(C(=O)N[C@@H](CCC(=O)O)C(=O)O)cc1 [Methotrexate, methotrexate] | IC50 ([2]; SPA-14 (SKMES-e27), single agent, dilution 1:1.5 (carmustine also 1:2, r12), read-out: CalcuSyn Dm): 10.7 nM; IC50 ([2]; SPA-14 (SKMES-e27), single agent, dilution 1:1.5 (carmustine also 1:2, r12), read-out: Prism IC50): 10.4 nM

Structure (SMILES) | IC50 [1, 5] | IC50 [1, 6] | IC50 [1, 7] | IC50 [1, 10] | IC50 [2, 11] | IC50 [2, 12] | IC50 [2, 13] | IC50 [2, 14] | IC50 [2, 15] | IC50 [2, 16] | IC50 [2, 17] | IC50 [2, 18] | IC50 [3, 19] | IC50 [3, 20] | IC50 [3, 21] | IC50 [3, 22] | IC50 [3, 23] | IC50 [3, 26] | IC50 [3, 27] | IC50 [1, 28] | other results
CC[C@@]1(O)C(=O)OCc2c1cc1n(c2=O)Cc2cc3ccccc3nc2-1 [Camptothecin, camptothecin] | 16 nM | 26 nM | 23 nM | 153 nM | 8 nM | 8 nM | 6 nM | 11 nM | 11 nM |  |  | 9 nM | 9.3 nM | 9.3 nM | 8.5 nM | 11 nM | 9.5 nM | 10 nM | ~9.3 nM |  | IC50 [1, 8]: 148 nM; IC50 [1, 9]: 550 nM; increase of Dm in the combination ([2]; SKMES, in combination with elsamitrucin versus single agent): less than 1.5 fold
O=NN(CCCl)C(=O)NCCCl [Carmustine, carmustine] | > 10000 nM | 60000 nM | 72000 nM | 66000 nM | 69800 nM | 69800 nM | 1440 nM |  |  | ~96000 nM | ~78000 nM |  |  | 42000 nM |  | 25000 nM | 28000 nM | 24900 nM | ~42000 nM |  | IC50 [1, 4]: 128000 nM; IC50 [3, 24]: 25800 nM; IC50 [3, 25]: 20800 nM
